Reference: US20150284689A1, “STRATEGY FOR ENGINEERING VARIOUS 3D TISSUES, ORGANOIDS AND VASCULATURE” (THE REGENTS OF THE UNIVERSITY OF CALIFORNIA, priority 2012, published 2015)

Tests used:
[1] = tested on: isolated ureteric bud, Wolffian duct bud; test: isolated ureteric bud / Wolffian duct culture in biocompatible matrix, branching morphogenesis; assay type: cell-based; details: isolated UB/WD separated from MM, in Matrigel/collagen gel
Description: This isolated cell culture system can serve as a powerful assay system since it directly assesses the effect of soluble factors on cell morphogenesis and tubulogenesis.
As discussed herein, the disclosure provides methods and compositions whereby isolated budding epethelia (e.g., UBs, WDs, or UBs and WDs) can be co-cultured and stimulated by extrinsic factors to induce branching. These branching buds can then be combined with a tissue specific mesenchymal cell population to develop a desired tissue (e.g., combined with metanephric mesenchyme to produce kidney tissue). For example, whole isolated intact UB, WD, or UB and ND (cleanly separated from surrounding MM) can be induced to undergo branching morphogenesis in vitro in a manner similar to UB, WD, or UB and WD culture. Suspension of the isolated UBs, WDs, or UBs and WDs within, or on, a natural or artificial biocompatible substrate (e.g., Matrigel/collagen gel) and when exposed to a mixture of mesenchyme-cultured media augmented with GDNF, results in the isolated unbranched UB, WD, or UB and WD rapidly forming a polarized, extensively branched structure with an internal lumen. […] This modulation is typically branch-promoting, elongation promoting, or branch-inhibiting.
The culture system and methods of the disclosure provide toe ability to propagate the isolated UB, WD, or UB and WD in vitro through several generations. For example, isolated stem cells, UB, WD, or any combination thereof are cultured in vitro and induced to undergo branching morphogenesis in the presence of BSN-CM or pleiotrophin and GDNF or pleiotrphin, FGF1, and GDNF. After 8 days, the cultured bud is subdivided into approximate 3rds and re-suspended within a suitable biocompatible matrix (matrigel/collagen gel). This 2nd generation bud is further subdivided after another 8 days of culture and the 3rd generation bud is cultured for 8 days (thus yielding at least 9 subdivided buds from one progenitor bud) (e.g., see FIG. 9A-B). These subsequent clonal generations of cultured UB, WD, or UB and WD retain the ability of the progenitor bud to induce mesenchyme upon in vitro recombination. The buds also retained the capacity to form cohesive conduits with the mesenchymally-derived tubules that they induced. Thus, the disclosure provides the ability to develop and propagate a clonal, expanded, and long-lived colony of ureteric bud, Wolffian duct bud, or ureteric and Wolffian duct buds, derived from a single progenitor bud that retains the properties of the progenitor. Using similar techniques with the MM, it is possible to develop colonies of mesenchyme derived from a single progenitor mesenchyme that can then be recombined with a propagated UB, WD, or UB and WD.

[2] = tested on: cultured mesenchyme; test: cultured isolated mesenchyme, induction/differentiation; assay type: cell-based; details: isolated mesenchyme cultured in vitro
[3] = tested on: MDCK and mIMCD cells; details: three-dimensional cultures of MDCK and mIMCD cells; cited from earlier work

Molecule: Endostatin
- effect on branching morphogenesis of isolated UB, WD [1]: selectively inhibits branching of the UB, WD, or UB and WD

Molecule: FGF1: fibroblast growth factor-1
- effect on branching morphogenesis of isolated UB, WD [1]: induced the formation of elongated stern cells, UB, ND, or any combination thereof branching stalks

Molecule: FGF2: growth factor present in UB/WD conditioned media
- effect on cultured mesenchyme (mesenchymal-to-epithelial transformation, survival, differentiation) [2]: appear to promote survival but not differentiation of mesenchyme

Molecule: HGF: Hepatocyte growth factor
- formation of branching tubular structures with lumens [3]: induce the formation of branching tubular structures with lumens

Molecule: LIF: leukemia-inhibitory factor, isolated from UB, WD conditioned media
- effect on cultured mesenchyme (mesenchymal-to-epithelial transformation, survival, differentiation) [2]: induce mesenchymal-to-epithelial transformation of cultured mesenchyme

B1: pleiotrophin: polypeptide in active morphogenetic fraction of BSN-CM; fibroblast proliferative and neurite outgrowth-promoting factor (protein, UniProt P21246 33-168, looked up)
Pleiotrophin: GKKEKPEKKVKKSDCGEWQWSVCVPTSGDCGLGTREGTRTGAECKQTMKTQRCKIPCNWKKQFGAECKYQFQAWGECDLNTALKTRTGSLKRALHNAECQKTVTISKPCGKLTKPKPQAESKKKKKEGKKQEKMLD
- effect on branching morphogenesis of isolated UB, WD [1]: induces branching morphogenesis of the whole ureteric bud, Wolffian duct bud, or ureteric and Wolffian duct bud

B2: FGF7: fibroblast growth factor-7 (protein, UniProt P21781 32-194, looked up)
Fibroblast growth factor 7: CNDMTPEQMATNVNCSSPERHTRSYDYMEGGDIRVRRLFCRTQWYLRIDKRGKVKGTQEMKNNYNIMEIRTVAVGIVAIKGVESEFYLAMNKEGKLYAKKECNEDCNFKELILENHYNTYASAKWTHNGGEMFVALNQKGIPVRGKKTKKEQKTAHFLPMAIT
- effect on branching morphogenesis of isolated UB, WD [1]: induced amorphous buds displaying nonselective proliferation with little distinction between stalks and ampullae
